In PMC11984905, “Chiral Switch of Gadopiclenol: New Standards in MRI Probes” (Advanced Science, 2025):

How the values were obtained:
[1] = Stability and protonation constants of Cu(II)-complexes (spectrophotometry, pH-potentiometry); type: physicochemical; conditions: 0.15 M NaCl, 25 °C
Procedure: The stability constants of the Cu(II)‐complexes with rac‐L1, ent‐L1, rac‐L2 and ent‐L2 ligands were determined by spectrophotometry studying the Cu(II) – rac‐L1, Cu(II) – ent‐L1, Cu(II) – rac‐L2 and Cu(II) – ent‐L2 systems at the absorption band of Cu(II)‐complexes at [H^+] = 0.01–1.0 M in the wavelength range of 400–800 nm. The concentrations of CuCl2, rac‐L1, ent‐L1, rac‐L2 and ent‐L2 ligands were 0.002 M. The H^+ concentration in the samples was adjusted with the addition of calculated amounts of 3 M HCl. (I = [Na^+]+[H^+] = 0.15, [H^+]≤0.15 M). The samples were kept at 25 °C for a week. The absorbance values of the samples were determined at 11 wavelengths (575, 595, 615, 635, 655, 675, 695, 715, 735, 755, and 775 nm). For the calculations of the stability and protonation constants of the Cu(II)‐complexes, the molar absorptivities of CuCl2 and Cu(II)‐complexes were determined by recording the spectra of 1.0 × 10^−3, 1.5 × 10^−3, 2.0 × 10^−3, and 2.5 × 10^−3 M solutions of CuCl2 and Cu(II)‐complexes in the pH range of 1.7–7.5. The pH was adjusted by stepwise addition of concentrated NaOH or HCl solutions. The spectrophotometric measurements were made with a PerkinElmer Lambda 365 UV–vis spectrophotometer at 25 °C, using 1.0 cm cells.
The stability and protonation constants of Cu(II) complexes with rac-L1, ent-L1, rac-L2 and ent-L2 have been determined by spectrophotometry. The equilibrium reaction (Equation (S8)) has been studied in the [H^+] range of 0.01 – 1.0 M (the ionic strength was constant I=[Na^+]+[H^+]=0.15 in the samples [H^+]≤0.15 M), where the formation of Cu^2+, CuHx-yL and HxL species was assumed ([Cu(rac-L1)]^4- and [Cu(ent-L1)]^4-: x=6 and 7, y=4 and 5; [Cu(rac-L2)]^4- and [Cu(ent-L2)]^4-: x=3 and 4, y=1 and 2).
The protonation constants of Cu(II)-complexes with rac-L1, ent-L1, rac-L2 and ent-L2 have been determined by pH-potentiometric and spectrophotometric titrations of the complexes in the pH range 1.7 – 7.0. These studies reveal that [Cu(rac-L1)]^4- and [Cu(ent-L1)]^4- complexes can form mono-, di-, tri, tetra- and penta-protonated species via the protonation of all distant and two closer carboxylate groups of the pendant arms. Moreover, the pH potentiometric studies also indicate that the [Cu(rac-L2)]^- and [Cu(ent-L2)]^- complexes can form mono- and di-protonated species via the protonation of two carboxylate groups. […] Moreover, the maximum of the absorption band for the [Cu(H5L)]^+ species in Cu^2+ – ent-L1 system is also similar to that of [Cu(H2L)]^+ in Cu^2+ – ent-L2 system ([…], Figures S45 and S47). The maximum of the absorption band is shifted from 730 to 750 nm by the deprotonation of [Cu(H5L)]^+ and [Cu(H2L)]^+ via the formation of [Cu(H4L)] and [Cu(HL)] species in Cu^2+– rac-L1 and Cu^2+– rac-L2 systems (Figures S44 and S46).

[2] = Relaxivity at 21 / 400 MHz and 25 °C in 0.15 M NaCl; type: physicochemical; conditions: 0.15 M NaCl
Procedure: The relaxivity values were calculated from the longitudinal relaxation time of H2O protons (T 1) measured at 21 MHz on a Stelar relaxometer connected to a Bruker WP80 NMR electromagnet adapted to variable‐field measurements (15−80 MHz proton Larmor frequency). The temperature of the sample holder was controlled with a thermostatted air stream. The longitudinal relaxation time was measured with the “inversion recovery” method (180° – τ – 90°) by using 12 different τ values with typical 90° pulse width of 6.4 µs, 4 scans. The measurements were performed with 1 mM solution of the Gd(III)‐complexes with rac‐L1, ent‐L1, rac‐L2, and ent‐L2 ligands, so the relaxivity values were given as r 1 = […] where T 1p and T 1w were the relaxation time of bulk water protons in the presence and absence of paramagnetic species, respectively. The variable pH relaxivity measurements of Gd(III)‐complexes with rac‐L1, ent‐L1, rac‐L2, and ent‐L2 ligands could be carried out by direct titration of the samples in the pH range 2.5–9.0 (21 MHz, 25 °C, 0.15 M NaCl). The pH was adjusted by stepwise addition of concentrated NaOH or HCl solution.
The stability constant of Gd(III)‐complexes with rac‐L2 and ent‐L2 ligands were determined by the measurement of the proton relaxation rates (r 1) studying the competition reaction of rac‐L2 and ent‐L2 ligands with AAZTA for Gd(III) ion at pH = 4.0 in 0.15 M NaCl solution. In these experiments, the concentration of Gd^3+, rac‐L2, and ent‐L2 ligands was 2.0 mM, while that of the AAZTA was varied between 1.0 and 6.0 mM (5 × 1.5 mL samples). The pH was adjusted to pH 4.0 by stepwise addition of concentrated NaOH or HCl solutions. The samples were kept at 70 °C for a month and then at 25°C for two months in order to attain the equilibrium (the time needed to reach the equilibria was determined by ^1H‐NMR relaxometry). ^1H‐NMR relaxometric measurement of Gd(III) – rac‐L2 – AAZTA and Gd(III) – ent‐L2 – AAZTA systems were performed with a Bruker Avance III 400 (9.4 T) equipped with BB inverse z gradient probe (5 mm). The longitudinal relaxation time (T 1) was measured with the “inversion recovery” method (180° – τ – 90°) by using 12 different τ values with typical 90° pulse width of 12.0 µs, 4 scans at 298 K. The stability constants of [Gd(rac‐L2)] and [Gd(ent‐L2)] complexes were calculated by considering the protonation constants of AAZTA ligand and the stability constant of [Gd(AAZTA)]^− complex (AAZTA: logK 1 ^H = 10.06, logK 2 ^H = 6.50, logK 3 ^H = 3.77, logK 4 ^H = 2.33, logK 5 ^H = 1.51; [Gd(AAZTA)]^−: logK GdL = 18.93, 0.15 M NaCl, 25 °C).^[ [47] ^] The equilibrium constants were calculated with the program PSEQUAD.^[ [48] ^]

Row | logK CuL [1] | logKCuH2L [1] | logKCuH3L [1] | logKCuH4L [1] | logKCuH5L [1] | logKCuHL [1] | SMILES | Relaxivity of GdH2L species ([2]; 21 MHz) [mM⁻¹ s⁻¹] | Relaxivity of GdH3L species ([2]; 21 MHz) [mM⁻¹ s⁻¹] | Relaxivity of GdH4L species ([2]; 21 MHz) [mM⁻¹ s⁻¹] | Relaxivity of GdHL species ([2]; 21 MHz) [mM⁻¹ s⁻¹] | Relaxivity of GdL species ([2]; 21 MHz) [mM⁻¹ s⁻¹] | Relaxivity of GdL species ([2]; 400 MHz) [mM⁻¹ s⁻¹]
1 | 23.26(4) | 4.80 (2) | 4.28 (2) | 3.69 (2) | 2.33 (2) | 5.38 (3) | O=C(O)CCC(C(=O)O)N1CCN(C(CCC(=O)O)C(=O)O)Cc2cccc(n2)CN(C(CCC(=O)O)C(=O)O)CC1 (racemic) [rac‐L1, 2,2’,2’’-[3,6,9,15-tetraazabicyclo[9.3.1]pentadeca-1(15),11,13-triene-3,6,9-triyl]tripentanedioic acid] | 9.61 ± 0.06 | 10.1 ± 0.1 | 11.7 ± 0.1 | 9.61 ± 0.06 | 9.61 ± 0.06 | –
2 | 21.04 (5) | 2.58 (5) | – | – | – | 4.42 (4) | O=C(CCC(C(=O)O)N1CCN(C(CCC(=O)NCC(O)CO)C(=O)O)Cc2cccc(n2)CN(C(CCC(=O)NCC(O)CO)C(=O)O)CC1)NCC(O)CO (racemic) [rac‐L2] | – | – | – | – | 14.8 ± 0.1 | 10.8 ± 0.1
3 | 23.22 (6) | 4.72 (2) | 4.11 (2) | 3.36 (2) | 1.31 (2) | 5.25 (2) | O=C(O)CCC(C(=O)O)N1CCN(C(CCC(=O)O)C(=O)O)Cc2cccc(n2)CN(C(CCC(=O)O)C(=O)O)CC1 (stereo not drawn) [ent‐L1] | 12.2 ± 0.2 | 11.8 ± 0.1 | – | 12.1 ± 0.1 | 12.9 ± 0.1 | –
4 | 21.52 (4) | 1.44 (1) | – | – | – | 3.27 (1) | O=C(CCC(C(=O)O)N1CCN(C(CCC(=O)NCC(O)CO)C(=O)O)Cc2cccc(n2)CN(C(CCC(=O)NCC(O)CO)C(=O)O)CC1)NCC(O)CO (stereo not drawn) [ent‐L2] | – | – | – | – | 16.2 ± 0.1 | 11.8 ± 0.1
